For assay [1], the target named is T1, HOIP (Homo sapiens, UniProt Q96EP0).
T1 construct: HOIP (697-1072) DU22629; GST (cleaved yes); host or cells: E. coli BL21
T1 sequence (Q96EP0 697-1072): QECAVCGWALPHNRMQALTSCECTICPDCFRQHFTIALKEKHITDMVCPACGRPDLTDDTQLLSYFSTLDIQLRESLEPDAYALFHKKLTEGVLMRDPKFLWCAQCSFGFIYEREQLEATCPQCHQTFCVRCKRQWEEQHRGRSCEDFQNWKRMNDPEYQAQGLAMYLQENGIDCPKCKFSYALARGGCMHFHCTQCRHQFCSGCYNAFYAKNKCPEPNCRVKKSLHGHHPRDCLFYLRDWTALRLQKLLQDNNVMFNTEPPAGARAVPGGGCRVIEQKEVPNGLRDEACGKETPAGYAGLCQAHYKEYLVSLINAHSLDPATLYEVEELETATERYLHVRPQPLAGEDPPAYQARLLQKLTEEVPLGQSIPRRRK
Nature of the assay: MALDI-TOF E2/E3 ligase assay (mono-ubiquitin consumption), UBE1/UBE2L3/HOIP. The class given is biochemical. Particulars: for remaining activity at 10 µM: read-out: Residual Activity (%), UBE1/UBE2L3/HOIP.

In assay [2] the target is MDM2 (Homo sapiens, UniProt Q00987). Put plainly: MALDI-TOF E2/E3 ligase assay (mono-ubiquitin consumption), UBE1/UBE2D1/MDM2. The class given is biochemical. Particulars: for remaining activity at 10 µM: read-out: Residual Activity (%), UBE1/UBE2D1/MDM2; for Inhibition effect on MDM2 with β-mercaptoethanol (BME) present: initial presence of BME in the MDM2 preparation.
MDM2, sequence (Q00987 whole entry): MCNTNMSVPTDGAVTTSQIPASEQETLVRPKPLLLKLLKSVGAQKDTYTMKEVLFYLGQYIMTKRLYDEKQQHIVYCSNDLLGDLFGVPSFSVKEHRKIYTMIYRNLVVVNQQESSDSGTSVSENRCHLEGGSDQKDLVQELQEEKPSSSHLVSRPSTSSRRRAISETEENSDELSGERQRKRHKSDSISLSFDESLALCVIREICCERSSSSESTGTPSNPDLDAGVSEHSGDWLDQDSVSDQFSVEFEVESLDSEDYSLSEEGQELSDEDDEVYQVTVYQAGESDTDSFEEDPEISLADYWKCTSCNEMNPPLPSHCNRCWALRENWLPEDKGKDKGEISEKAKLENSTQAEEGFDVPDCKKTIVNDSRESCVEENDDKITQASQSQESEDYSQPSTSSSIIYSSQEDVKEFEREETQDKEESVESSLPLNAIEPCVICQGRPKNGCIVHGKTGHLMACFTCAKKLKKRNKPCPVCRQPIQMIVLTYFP
Assay [3] concerns the target T2, ITCH (Homo sapiens, UniProt Q96J02).
T2 construct: ITCH Q96J02 - GST full length; host or cells: E. coli BL21
Nature of the assay: MALDI-TOF E2/E3 ligase assay (mono-ubiquitin consumption), UBE1/UBE2D1/ITCH. To be noted: for remaining activity at 10 µM: read-out: Residual Activity (%), UBE1/UBE2D1/ITCH. The class given is biochemical.

Assay [4] deals with T3, UBE2L3 (Homo sapiens, UniProt P68036).
T3 construct: UBE2L3 P68036 UbcH7 - full length; 6His (cleaved yes); host or cells: E. coli BL21 DE3 codon plus
T3 sequence (P68036 whole entry): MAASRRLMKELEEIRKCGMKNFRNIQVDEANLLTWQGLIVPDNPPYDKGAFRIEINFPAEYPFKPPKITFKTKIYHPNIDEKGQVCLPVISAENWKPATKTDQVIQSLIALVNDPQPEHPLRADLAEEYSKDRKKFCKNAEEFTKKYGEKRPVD
Nature of the assay: MALDI-TOF MS of intact E2 protein incubated with inhibitor (covalent modification). In kind it is binding. Particulars: UBE2L3 3 µM, inhibitor 100 µM, 30 min, room temperature.

In assay [5] the target is T1, HOIP. The class given is biochemical.
For assay [6], the system named is ITCH. Also on record: method as in Rossi et al., 2014. To be noted: irreversible block; ref Rossi et al., 2014; cited from earlier work.
[7] abbreviates: HTS single point, 10 μM compound.
Where [8] appears, read: UBE1/UBE2D1/MDM2, compounds pre-incubated 30 min, then ubiquitin 30 or 40 min, four-parameter fit, read-out: IC50 against MDM2.
Setting [9] is: UBE1/UBE2D1/ITCH, compounds pre-incubated 30 min, then ubiquitin 30 or 40 min, four-parameter fit, read-out: IC50 against ITCH.
Where [10] appears, read: UBE1/UBE2L3/HOIP, compounds pre-incubated 30 min, then ubiquitin 30 or 40 min, four-parameter fit, read-out: IC50 against HOIP.

Several values for one entry are separate records, joined by “and”; a condition that tells them apart may be missing. Equal values may be shown once. Entries after “also recorded” stand apart in the source; their conditions may differ. Read-outs that look alike come from different tables or passages of the source.

T2 sequence (Q96J02 whole entry): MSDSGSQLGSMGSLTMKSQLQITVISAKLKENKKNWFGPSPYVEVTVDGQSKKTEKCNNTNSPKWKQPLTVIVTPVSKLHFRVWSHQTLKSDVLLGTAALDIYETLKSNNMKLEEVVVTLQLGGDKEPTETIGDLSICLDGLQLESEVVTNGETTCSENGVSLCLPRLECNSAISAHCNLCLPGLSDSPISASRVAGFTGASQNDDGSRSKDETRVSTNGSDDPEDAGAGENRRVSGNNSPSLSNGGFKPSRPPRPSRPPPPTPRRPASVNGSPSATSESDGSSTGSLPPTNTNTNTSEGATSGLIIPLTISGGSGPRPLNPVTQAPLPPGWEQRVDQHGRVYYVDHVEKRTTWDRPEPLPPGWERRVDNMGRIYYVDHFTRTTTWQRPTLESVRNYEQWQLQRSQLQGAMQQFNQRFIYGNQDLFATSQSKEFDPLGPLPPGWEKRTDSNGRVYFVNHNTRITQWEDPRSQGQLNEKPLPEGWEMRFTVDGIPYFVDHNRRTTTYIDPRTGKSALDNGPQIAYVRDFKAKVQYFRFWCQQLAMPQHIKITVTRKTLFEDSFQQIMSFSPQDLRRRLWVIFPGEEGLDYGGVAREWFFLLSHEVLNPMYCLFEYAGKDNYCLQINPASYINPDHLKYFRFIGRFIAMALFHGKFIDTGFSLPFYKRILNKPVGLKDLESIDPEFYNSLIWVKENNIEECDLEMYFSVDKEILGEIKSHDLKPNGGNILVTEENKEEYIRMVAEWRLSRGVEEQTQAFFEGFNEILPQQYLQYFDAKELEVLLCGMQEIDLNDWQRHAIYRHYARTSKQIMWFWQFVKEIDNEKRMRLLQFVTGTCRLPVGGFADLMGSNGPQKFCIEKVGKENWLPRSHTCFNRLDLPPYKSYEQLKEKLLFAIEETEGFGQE

For the molecule `Oc1ccc(/C=C/c2cc(O)cc(O)c2)cc1` [resveratrol], the remaining activity at 10 µM in assay [1] (setting [7]) came out at 62.2%.

As for `C[C@H]1[C@H](NC(=O)/C(=N\OC(C)(C)C(=O)O)c2csc(N)n2)C(=O)N1S(=O)(=O)O` [aztreonam], the remaining activity at 10 µM in assay [2] (setting [7]) was determined as 56.7%.

In the case of `N[C@@H](C(=O)N[C@@H]1C(=O)N2C(C(=O)O)=C(CSc3c[nH]nn3)CS[C@H]12)c1ccc(O)cc1` [cefatrizine], in assay [1] (setting [7]), the remaining activity at 10 µM is 49%.

For the molecule `CCCCN1CCCCC1C(=O)Nc1c(C)cccc1C` (centres unmarked) [bupivacaine], in assay [1] (setting [7]), the remaining activity at 10 µM was 66.2%.

For `Cc1[nH]cnc1CN1CCc2c(c3ccccc3n2C)C1=O` [alosetron], the remaining activity at 10 µM in assay [3] (setting [7]) is 58.2%.

Turning to `CCOc1nc2cccc(C(=O)OC(C)OC(=O)OC3CCCCC3)c2n1Cc1ccc(-c2ccccc2-c2nnn[nH]2)cc1` (centres unmarked) [candesartan cilexetil], in assay [2] (setting [7]), the inhibition (as a rule, the change of the read-out against control, counted positive when it falls) at 10 µM was above 50% and the remaining activity at 10 µM turned out to be 48.6%. In assay [2] (setting [8]), the IC50 (commonly the concentration that gives 50% inhibition) is 8800 nM.

As for `O=C(NCCN1CCOCC1)c1ccc(Cl)cc1` [moclobemide], the remaining activity at 10 µM in assay [1] (setting [7]) was 25.9%.

With `NC(=O)c1cnccn1` [pyrazinamide], the remaining activity at 10 µM in assay [1] (setting [7]) amounted to 49.3%.

With `Oc1c(Cl)cc(Cl)c(Cl)c1Cc1c(O)c(Cl)cc(Cl)c1Cl` [hexachlorophene], the remaining activity at 10 µM in assay [2] came to 52.4%; in assay [3], 22.2%.

`C=C(CC)C(=O)c1ccc(OCC(=O)O)c(Cl)c1Cl` [ethacrynic acid]: the remaining activity at 10 µM amounted to 53.9% in assay [2] (setting [7]) and 29.5% in assay [3] (setting [7]).

For `CCOC(=O)c1ccc(N2NC(=O)/C(=C/c3ccc([N+](=O)[O-])o3)C2=O)cc1` [PYR41], the “Hill Slope Values for calculated IC50s, MDM2” value in assay [2] (Table S4) is 2.23. Also, the figures for the IC50 in assay [2] (setting [8]), in assay [3] (setting [9]) and in assay [1] (setting [10]) were 3100 nM, 11.3 µM and 5.7 µM, respectively. The “Inhibition effect on MDM2 with β-mercaptoethanol (BME) present” value in assay [2] is on record as “suppressed”. Further, the “Hill Slope Values for calculated IC50s, ITCH” value in assay [3] (Table S4) is 1.22. For the same molecule, the “Hill Slope Values for calculated IC50s, HOIP” value in assay [1] (Table S4) is 3.73.

`N#CSc1cc(SC#N)c(N)nc1N` [PR619]: the “Hill Slope Values for calculated IC50s, MDM2” value in assay [2] (Table S4) is recorded as 1.89. The concentration for half-maximal inhibition (IC50) in assay [2] (setting [8]) is 600 nM; in assay [3] (setting [9]), 0.4 µM; in assay [1] (setting [10]), 0.2 µM. Also, in assay [3] (Table S4), the “Hill Slope Values for calculated IC50s, ITCH” value is 3.14. In addition, in assay [4], the “Covalent modification of E2 enzyme UBE2L3 (in words)” value is recorded as “extensively modified UBE2L3; also recorded: covalently modified E2 enzymes”. Besides, the “Hill Slope Values for calculated IC50s, HOIP” value in assay [1] (Table S4) is on record as 7.8.

In the case of `Cc1ccnc2c1NC(=O)c1cccnc1N2C1CC1` [nevirapine], the remaining activity at 10 µM in assay [1] (setting [7]) is 54.8%.

As for `O=c1c2ccccc2[se]n1-c1ccccc1` [ebselen], the remaining activity at 10 µM in assay [1] (setting [7]) came out at 36.2%.

`COc1ccc(C2=N[C@@H](c3ccc(Cl)cc3)[C@@H](c3ccc(Cl)cc3)N2C(=O)N2CCNC(=O)C2)c(OC(C)C)c1` [Nutlin3A, nutlin-3A]: the “Inhibitory activity toward ITCH in IC50 curves (in words)” value in assay [3] (0–100 μM) is reported as “did not show any inhibitory activity”. Also, in assay [3] (UBE1/UBE2D1/ITCH, compounds pre-incubated 30 min, then ubiquitin 30 or 40 min, four-parameter fit), the “IC50 against ITCH” value is recorded as “ambiguous”. In addition, the “Inhibitory activity toward HOIP in IC50 curves (in words)” value in assay [1] (0–100 μM) is reported as “did not show any inhibitory activity”. The “IC50 against HOIP” value in assay [1] (UBE1/UBE2L3/HOIP, compounds pre-incubated 30 min, then ubiquitin 30 or 40 min, four-parameter fit) is “ambiguous”.

On to `Cn1c(CCCC(=O)O)nc2cc(N(CCCl)CCCl)ccc21` [bendamustine], for which, in assay [2], the IC50 came out at 114000 nM and the “Inhibition of MDM2 at 10 μM (in words)” value was “did not significantly affect”. Besides, in assay [3], the IC50 came to 76.8 µM and the “Inhibition of ITCH at 10 μM (in words)” value is “did not significantly affect”. Besides, the “Inhibition of HOIP when paired with UBE2D1 (in words)” value in assay [5] was “inhibits HOIP independently from the E2 in use; also recorded: retained its inhibition power”. For the same molecule, in assay [1] (IC50 against HOIP, UBE1/UBE2L3/HOIP, compounds pre-incubated 30 min, then ubiquitin 30 or 40 min, four-parameter fit), the IC50 was 6.4 µM and 6.3 µM. In assay [1] (from IC50 values), the “Fold higher activity against HOIP than against ITCH” value was 12 fold and the “Fold higher activity against HOIP than against MDM2” value came out at 18 fold. The remaining activity at 10 µM in assay [1] was found to be 6.3%.

Regarding `Cc1ccc(S(=O)(=O)/C=C/C#N)cc1` [BAY117082], the “Hill Slope Values for calculated IC50s, MDM2” value in assay [2] (Table S4) is recorded as 3.5. Besides, the IC50 in assay [2] (setting [8]) amounted to 2400 nM; in assay [3] (setting [9]), 25.9 µM; in assay [1] (setting [10]) it was 2.9 µM. The “Inhibition effect on MDM2 with β-mercaptoethanol (BME) present” value in assay [2] was “suppressed”. Besides, the “Hill Slope Values for calculated IC50s, ITCH” value in assay [3] (Table S4) was 1.23. The “Covalent modification of E2 enzyme UBE2L3 (in words)” value in assay [4] was “covalently modified E2 enzymes”. Further, the “Mass shift of UBE2L3 after incubation with inhibitor” value in assay [4] was 153 Da. For the same molecule, the “Hill Slope Values for calculated IC50s, HOIP” value in assay [1] (Table S4) was 2.48.

Turning to `OC(Cn1cncn1)(Cn1cncn1)c1ccc(F)cc1F` [fluconazole], in assay [1] (setting [7]), the remaining activity at 10 µM turned out to be 46.4%.

Regarding `COc1ccc(CCN)cc1OC` [2-(3,4-dimethoxyphenyl) ethanamine], the remaining activity at 10 µM in assay [1] amounted to 68.2%.

Consider `CN1C(=O)[C@]23CC4=CC=C[C@H](O)[C@H]4N2C(=O)[C@@]1(CO)SS3` [Gliotoxin], for which, in assay [2], the “Hill Slope Values for calculated IC50s, MDM2” value was 2.18 and it took 500 nM to reach half-maximal inhibition (IC50). Further, in assay [3], the “Hill Slope Values for calculated IC50s, ITCH” value was 5.12 and the IC50 was 30.5 µM. Besides, in assay [1], the “Hill Slope Values for calculated IC50s, HOIP” value is 2.01 and half-maximal inhibition (IC50) required 2.8 µM.

`CN(C)CCCN1c2ccccc2CCc2ccc(Cl)cc21` [Clomipramine]: the “Inhibition of MDM2 at 10 μM (in words)” value in assay [2] is on record as “did not inhibit”. The “Inhibition of ITCH at 10 μM (in words)” value in assay [3] was “did not inhibit”. For the same molecule, the IC50 in assay [3] (dose-response curve, final concentrations between 2mM and 7 µM, read-out: IC50 against ITCH) is 503 µM and ~500 µM. Also, in assay [1] (10 μM), the “Inhibition of HOIP at 10 μM (in words)” value is listed as “did not inhibit”. Also, the “Concentration achieving complete inhibition of ITCH ubiquitin transthiolation” value in assay [6] was 0.8 mM.

These data come from article PMC6162346, “The MALDI-TOF E2/E3 Ligase Assay as Universal Tool for Drug Discovery in the Ubiquitin Pathway” (Cell Chemical Biology, 2018).
